{"source": "ChEMBL document CHEMBL2073794", "about": "“Catecholamine transport by the organic cation transporter type 1 (OCT1)” (Br J Pharmacol, 1998)", "target": "T1, Solute carrier family 22 member 1 (Rattus norvegicus, UniProt Q63089)", "T1 sequence (Q63089 whole entry)": "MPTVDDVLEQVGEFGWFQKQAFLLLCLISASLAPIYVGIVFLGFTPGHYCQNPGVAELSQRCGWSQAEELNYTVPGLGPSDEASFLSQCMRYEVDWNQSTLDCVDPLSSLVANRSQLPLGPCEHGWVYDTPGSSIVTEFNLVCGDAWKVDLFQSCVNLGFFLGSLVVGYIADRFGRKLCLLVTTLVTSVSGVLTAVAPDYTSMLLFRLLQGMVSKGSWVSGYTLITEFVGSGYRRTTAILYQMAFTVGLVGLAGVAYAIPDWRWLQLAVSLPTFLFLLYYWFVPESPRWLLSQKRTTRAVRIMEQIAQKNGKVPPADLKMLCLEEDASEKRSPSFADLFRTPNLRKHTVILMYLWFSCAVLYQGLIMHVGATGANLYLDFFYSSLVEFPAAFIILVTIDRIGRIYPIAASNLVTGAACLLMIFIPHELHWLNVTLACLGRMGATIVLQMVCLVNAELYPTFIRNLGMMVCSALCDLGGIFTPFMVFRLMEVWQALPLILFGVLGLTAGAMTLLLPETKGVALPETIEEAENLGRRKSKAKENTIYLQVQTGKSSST", "assay": "TP_TRANSPORTER: uptake in OCT1-expressing HEK293 cells", "assay_type": "functional, cell-based", "conditions": "human"}
{"compound": "NCCc1ccc(O)c(O)c1", "note": "[DOPAMINE]", "values": [{"measurement": "Activity", "value": "substrate [+]"}]}
{"compound": "CNC[C@H](O)c1ccc(O)c(O)c1", "note": "[EPINEPHRINE]", "values": [{"measurement": "Activity", "value": "substrate [+]"}]}
{"compound": "NC[C@H](O)c1ccc(O)c(O)c1", "note": "[NOREPINEPHRINE]", "values": [{"measurement": "Activity", "value": "substrate [+]"}]}
{"compound": "NCCc1c[nH]c2ccc(O)cc12", "note": "[SEROTONIN]", "values": [{"measurement": "Activity", "value": "substrate [+]"}]}
{"compound": "CC[N+](CC)(CC)CC", "note": "[TETRYLAMMONIUM]", "values": [{"measurement": "Activity", "value": "substrate [+]"}]}
{"compound": "NCCc1ccc(O)cc1", "note": "[TYRAMINE]", "values": [{"measurement": "Activity", "value": "substrate [+]"}]}
